Test results as given in article PMC10377586 (Biomolecules, 2023).

Legend:
human MAO-A = target: T1, human MAO-A (Homo sapiens, UniProt P21397); test: Amplex Red monoamine oxidase assay, MAO-A; assay type: biochemical; conditions: for IC50: human recombinant MAO-A, read-out: MAO-A IC50 ± SEM; for inhibition at 1 µM: read-out: MAO-A % Inhibition ± SEM at 1 µM
T1 construct: purchased Sigma Aldrich M7316
T1 sequence (P21397 1-527): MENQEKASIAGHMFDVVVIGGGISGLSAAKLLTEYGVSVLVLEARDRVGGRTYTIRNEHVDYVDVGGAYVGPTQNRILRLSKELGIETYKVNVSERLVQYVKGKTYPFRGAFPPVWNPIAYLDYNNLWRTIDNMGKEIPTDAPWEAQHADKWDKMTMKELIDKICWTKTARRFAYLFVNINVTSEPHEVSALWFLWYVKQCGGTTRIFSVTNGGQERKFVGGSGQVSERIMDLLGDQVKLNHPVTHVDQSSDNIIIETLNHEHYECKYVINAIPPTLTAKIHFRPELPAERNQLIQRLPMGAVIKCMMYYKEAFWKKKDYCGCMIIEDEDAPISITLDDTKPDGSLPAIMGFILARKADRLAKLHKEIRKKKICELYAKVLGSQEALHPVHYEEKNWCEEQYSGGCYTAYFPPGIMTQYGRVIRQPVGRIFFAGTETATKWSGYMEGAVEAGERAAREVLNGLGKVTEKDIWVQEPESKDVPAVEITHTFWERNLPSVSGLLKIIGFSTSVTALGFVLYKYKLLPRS
Description: The final compounds were evaluated in vitro for their human MAO-B (hMAO-B) inhibitory potencies, and selected structures were also investigated for human MAO-A (hMAO-A) inhibition.
Inhibition activity of compounds at MAO enzyme isoforms was measured via a fluorometric method using the Amplex Red Monoamine Oxidase Assay (ThermoFisher Scientific, Waltham, MA, USA #A12214) in a 96-well plates. Human recombinant MAO-B and MAO-A enzymes (Sigma Aldrich, St. Louis, MO, USA #M7441 and #M7316) were used. The assays were conducted as previously described.

rat A2A (rA2A) ARs = target: T2, rat A2A (rA2A) ARs (Rattus norvegicus, UniProt P30543); test: Radioligand binding [3H]MSX-2, rat brain striatal membranes; conditions: read-out: rA2A [3H]MSX-2 Ki ± SEM
T2 construct: rat brain striatal membrane preparations for A2A AR assays; tissue Pel Freez; host or cells: rat brain striatum membranes
Description: (§1) The final compounds were tested in radioligand binding assays to evaluate their affinity for all four ARs subtypes (see Table 2). Rat brain cortical membrane preparations were used as a source of rat A1 (rA1) ARs, and rat brain striatal membrane preparations served as a source of rat A2A (rA2A) ARs. For A2B- and A3AR assays, membrane preparations of Chinese hamster ovary (CHO) cells recombinantly expressing either human A2B (hA2B) or human A3 (hA3) ARs were employed.
(§2) Adenosine receptor radioligand binding assays were performed as previously described using rat brain cortical membrane preparations for A1 and rat brain striatal membrane preparations for A2A AR assays. Frozen rat brains (unstripped) were obtained from Pel Freez, Rogers, AR, USA. For assays at human AR subtypes, cell membranes of CHO cells recombinantly expressing the respective receptor were used. The following compounds were employed as radioligands: A1: [^3H]2-chloro-N^6-cyclopentyladenosine ([^3H]CCPA); A2A: [^3H]3-(3-hydroxypropyl)-7-methyl-8-(m-methoxystyryl)-1-propargylxanthine ([^3H]MSX-2); A2B: [^3H]8-(4-(4-(4-chlorophenyl)piperazine-1-sulfonyl)phenyl)-1-propylxanthine ([^3H]PSB-603); A3: [^3H]phenyl-8-ethyl-4-methyl-(8R)-4,5,7,8-tetrahydro-1H-imidazo[2,1-i]purine-5-one ([^3H]PSB-11). Initially, a single high concentration of compound was tested (1 µM). For potent compounds, full concentration–inhibition curves were determined using six to ten different concentrations of test compound spanning three orders of magnitude. At least three independent experiments were performed. Data were analyzed using GraphPad PRISM program version 4.0 or higher (Graph Pad, San Diego, CA, USA).

human A2B (hA2B) ARs = target: T3, human A2B (hA2B) ARs (Homo sapiens, UniProt P29275); test: Radioligand binding [3H]PSB-603, CHO cell membranes; conditions: for Ki: CHO cell membranes, read-out: hA2B [3H]PSB-603 Ki ± SEM; for inhibition at 1 µM: read-out: hA2B [3H]PSB-603 % inhibition ± SEM at 1 µM
T3 construct: expressed in transfected cells; host or cells: CHO cells (membranes)
T3 sequence (P29275 1-332): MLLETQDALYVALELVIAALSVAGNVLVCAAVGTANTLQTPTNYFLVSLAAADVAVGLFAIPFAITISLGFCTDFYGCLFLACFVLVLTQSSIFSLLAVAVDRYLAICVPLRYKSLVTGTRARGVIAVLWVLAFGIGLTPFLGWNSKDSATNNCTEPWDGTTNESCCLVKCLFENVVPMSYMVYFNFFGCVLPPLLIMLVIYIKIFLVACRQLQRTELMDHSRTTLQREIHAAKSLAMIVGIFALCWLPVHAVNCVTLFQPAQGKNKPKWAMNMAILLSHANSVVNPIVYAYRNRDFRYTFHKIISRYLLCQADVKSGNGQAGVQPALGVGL
Description: as §1, §2

DPPH antioxidant assay = assay type: physicochemical; conditions: compound at 50 µM
Excerpt: The 2,2-diphenyl-1-picrylhydrazyl (DPPH) assay was used to determine the antioxidant properties of selected compounds using ascorbic acid, trolox, and quercetin as references. […] From a structural point of view, 21 and 22 share a common pyrimido[2,1-f]purinedione core with propyl or butyl substituents at the N1- and N3-position. Compounds 11i and 11l, containing hexyl or phenoxyethyl as N7-substituents, were the only structures in the groups of bicyclic xanthine derivatives that lacked antioxidant activity in the DPPH assay.
Antioxidant properties of considered structures were evaluated in DPPH test. The assay utilizes a stable free radical 2,2-diphenyl-1-picrylhydrazyl (DPPH). DPPH has a deep violet color in solution and strong absorption band at 520 nm. The antioxidant activity of the tested compounds was defined by their ability to induce the formation of the reduced form of DPPH. Upon reduction, DPPH color turned pale yellow, which manifested by decreased sample absorption at 520 nm and was measured in conducted experiments using EnSpire microplate reader (PerkinElmer). Antioxidant activity of xanthine derivatives and reference compounds was tested in triplicate at 50 µM concentration and normalized to the activity of reference radical scavenger—quercetin.
Figure 2 Antioxidant properties of xanthine derivatives evaluated in the DPPH test. All compounds were tested at 50 µM concentration. Results were normalized to the antioxidant activity measured for quercetin. ASC, ascorbic acid; TLX, trolox; QCT, quercetin.

T2 sequence (P30543 whole entry): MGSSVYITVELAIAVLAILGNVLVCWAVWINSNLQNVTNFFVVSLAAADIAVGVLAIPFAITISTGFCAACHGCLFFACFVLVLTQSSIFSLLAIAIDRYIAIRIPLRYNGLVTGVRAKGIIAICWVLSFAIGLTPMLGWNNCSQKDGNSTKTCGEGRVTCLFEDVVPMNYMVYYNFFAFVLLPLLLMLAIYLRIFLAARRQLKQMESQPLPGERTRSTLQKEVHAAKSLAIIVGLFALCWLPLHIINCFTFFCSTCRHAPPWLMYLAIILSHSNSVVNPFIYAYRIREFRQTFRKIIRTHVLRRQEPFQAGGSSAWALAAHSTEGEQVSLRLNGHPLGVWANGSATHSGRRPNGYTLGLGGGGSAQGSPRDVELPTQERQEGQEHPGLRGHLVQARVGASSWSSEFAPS

IC50 (human MAO-A) | inhibition at 1 µM (human MAO-A) | Ki (rat A2A (rA2A) ARs) | Ki (human A2B (hA2B) ARs) | inhibition at 1 µM (human A2B (hA2B) ARs) | Compound | Antioxidative Activity [% of Quercetin Response at 50 µM ± SD] (DPPH antioxidant assay)
> 1000 nM | 29% | 507 ± 109 nM | > 1000 nM | 13% | Cn1c(=O)c2c(nc3n2CCCN3CCc2ccc(O)c(O)c2)n(C)c1=O [Compound 20a, 9-(3,4-Dihydroxyphenethyl)-1,3-dimethyl-6,7,8,9-tetrahydropyrimido[2,1-f]purine-2,4(1H,3H)-dione] | 68 ± 2 % of Quercetin Response
> 1000 nM | 44% | 234 ± 55 nM | > 1000 nM | 6% | Cn1c(=O)c2c(nc3n2CCCCN3CCc2ccc(O)c(O)c2)n(C)c1=O [Compound 20b, 10-(3,4-Dihydroxyphenethyl)-1,3-dimethyl-7,8,9,10-tetrahydro-1H-[1, 3]diazepino[2,1-f]purine-2,4(3H,6H)-dione] | 79 ± 1 % of Quercetin Response
~1000 nM | 61% | 274 ± 81 nM | 371 ± 23 nM |  | CCCn1c(=O)c2c(nc3n2CCCN3CCc2ccc(O)c(O)c2)n(CCC)c1=O [Compound 21, 9-(3,4-Dihydroxyphenethyl)-1,3-dipropyl-6,7,8,9-tetrahydropyrimido[2,1-f]purine-2,4(1H,3H)-dione] | 13 ± 1 % of Quercetin Response
> 1000 nM | 43% | 334 ± 52 nM | 175 ± 21 nM |  | CCCCn1c(=O)c2c(nc3n2CCCN3CCc2ccc(O)c(O)c2)n(CCCC)c1=O [Compound 22, 1,3-Dibutyl-9-(3,4-dihydroxyphenethyl)-6,7,8,9-tetrahydropyrimido[2,1-f]purine-2,4(1H,3H)-dione] | 26 ± 2 % of Quercetin Response
